Data reported in patent US20250185666A1, “Root-Targeted Delivery of Agrochemicals using Natural Microbial Carriers” (priority 2023, published 2025).
Values joined by “and” are separate entries in the source; they are usually repeats but may differ in a detail not shown here. Identical values can stand only once. Marks after values point to notes of the source that are not given here.

How the values were obtained:
Spodoptera frugiperda = experiment: Maize leaf fall armyworm damage assay after seed treatment (feeding damage and FAW mortality); type: in vivo; parameters: Regression for feeding damage by leaf segment, Leaf 3 Middle / Regression for feeding damage by leaf segment, Leaf 3 Tip / Regression for feeding damage by leaf segment, Leaf 4 Middle / Regression for feeding damage by leaf segment, Leaf 4 Tip / Regression for feeding damage by leaf segment, Leaf 5 Middle / Regression for feeding damage by leaf segment, Leaf 5 Tip: unit not given here; conditions: for Regression for feeding damage by leaf segment, Leaf 3 Middle / Regression for feeding damage by leaf segment, Leaf 3 Tip / Regression for feeding damage by leaf segment, Leaf 4 Middle / Regression for feeding damage by leaf segment, Leaf 4 Tip / Regression for feeding damage by leaf segment, Leaf 5 Middle / Regression for feeding damage by leaf segment, Leaf 5 Tip: coefficient vs Baseline; for Regression for FAW mortality rate (coefficient) / Regression for overall feeding damage (coefficient): vs Baseline, controls for experimental run and tray location; for Regression for FAW mortality rate (coefficient): across six leaf segments per plant; for Regression for overall feeding damage (coefficient): averaged across six leaf segments per plant
Description: An experiment was designed to measure any systemic effects of soil protists in the presence and absence of (agrochemical) insecticide on pest damage resistance for plants grown from seeds. The experiments consisted of two stages: the growth stage and the pest stage. In the growth stage, maize seeds were treated individually with one of six mixtures containing bacteria, protists, and or/agrochemicals. All treatments included heat-killed bacteria, the food source for protists (protozoa). Additional potential components of each treatment were one of two agrochemicals, or soil protists, or one of two agrochemicals plus soil protists (Table 1). Treated seeds were germinated and grown in soil-filled pots in a greenhouse. Plants were grown in surplus quantities and down-selected to 48 representative plants per treatment for each experimental run (Table 2).
In the pest stage, three individual leaves were harvested from each plant, then the Tip and Middle segments of said leaves were collected. Each of the six leaf segments from the plant were placed in individual tray wells and challenged by a single insect larva, as explained further below.
Formulations for seed treatments (Table 1) were prepared in Page's Saline 24 h prior to inoculation and held at 23° C. in darkness. Prior to application, each formulation was vortexed for 30 sec then a small aliquot (50 μL) was added directly on top of each exposed seed during planting. Based on our prior experience, this small-volume-aliquot performs similarly to more conventionally formulated seed coatings, enabling early-stage screening of experimental formulations that are available only in limited quantities.
For each experimental run, 240 pots (10-cm, TLC Square Form Pots, HC Companies) were first filled with dry, steam pasteurized screened field soil (Kalamazoo, Michigan; Coloma loamy sand). The soil was misted with water with an automated system to reach field capacity in the Corteva Agriscience greenhouse located in Indianapolis, IN for at least 4 d prior to planting. Next, 3.8 cm deep, 2 cm wide holes were created in the center of each soil-filled pots, and a single seed was placed tip cap side down 3.8 cm below the soil surface. Each seed was immediately inoculated with a seed treatment (described above, n=60 per treatment). Treated pots were then randomized in the greenhouse to reduce systematic error (FIG. 1A). The greenhouse averaged 23° C. (maximum of 30° C. day and minimum of 19° C. at night). The plants received 100 mL water from the automated system, split over 49 passes, during the first week after planting, and 200 mL water split over 98 passes during the second week after planting.
Leaf segments were harvested on 48 representative plants selected from the 60 pots per treatment (FIG. 1A). Trays were filled in a semi-random fashion with less optimal plants at the end of tray 3 and the most underdeveloped plants being discarded. Plants were numbered as they were selected during the Leaf 3 harvest, and tracked through the harvest of Leaves 4 and 5 for robustness. Maize leaves are labelled according to the order they sprout. Maize was allowed to grow for 10 d before harvesting Leaf 3 and left for another 4 d (14 d total) before harvesting Leave 4, 5 (FIG. 1B). Leaves were segmented with the distal 3.8 cm labelled as Tip. Leaf Middle segments were harvested as a 3.8-cm segment from the middle of the leaf. For smaller leaves (such as the earlier-harvested Leaf 3), the Middle abutted the Tip. For larger leaves (4th and 5th), any section between Tip and Middle segments was discarded. For agrochemicals which translocate, such as those tested here, the agrochemical accumulates in the leaf Tips. By testing both leaf Tip and Middle, the relative amount of agrochemical moved by phloem or xylem transport since the leaf sprouted can be measured (Tip) along with the agrochemical in the process of transportation during harvest (Middle). […]

[1] = Transport of 14C-labeled Chlorantraniliprole in maize (autoradiography, combustion analysis); conditions: maize (Zea mays L.), in vivo, 7 d
Description: A scaled-up version of the μ-rhizoslide was developed to work with maize. First, ^14C-labeled agrochemical was dissolved in acetone, spiked onto the wall of a glass sample vial, and the acetone evaporated. Un-radiolabeled agrochemical formulation was then added to the vial and sonicated for 20 min to distribute the ^14C-labeled material into the formulation. The formulation was then mixed with Page's Saline containing heat-killed E. coli, or with Page's Saline containing both protists and heat-killed E. coli to prepare the seed treatments formulation. As described before, the ^14C-labeled seed treatment formulations were allowed to rest in darkness for 24 h prior to application. Final radioactivity was measured at approximately 300,000 DPM per individual seed treatment. Pots were filled, and seeds planted and treated as described above. Plants were harvested at 1 week due to restricted space for work with radiolabeled material. […]
A similar experiment was conducted using ^14C-labeled Chlorantraniliprole, differing in the allocated growth period (7 vs 14 d), watering schedule (due to limitations of radioactive containment), and pot (3D printed device optimized for radio-detection vs traditional 4.5″ pot). Radioactivity in both the plant material and the soil were measured before combustion analysis was conducted on the plant material.

UC-1 cultures = experiment: Screen of candidate formulations for operational toxicity to UC-1 cultures; conditions: concentrated formulation
Description: Finally, candidate formulations were screened for operational toxicity to UC-1 cultures (i.e., live protists in a concentrated formulation should remain viable and actively moving). […] Both agrochemicals were used in their like-commercial formulations, which is a proprietary blend containing biocides and other ingredients needed to keep the agrochemical suspended and maintain performance.

[2] = Table 6 (Chlorantraniliprole data set)

## CNC(=O)c1cc(Cl)cc(C)c1NC(=O)c1cc(Br)nn1-c1ncccc1Cl [Chlorantraniliprole, chlorantraniliprole]
Spodoptera frugiperda; [2]
  Regression for feeding damage by leaf segment, Leaf 3 Middle: −36.100***
  Regression for feeding damage by leaf segment, Leaf 3 Tip: −65.841***
  Regression for feeding damage by leaf segment, Leaf 4 Middle: −6.424**
  Regression for feeding damage by leaf segment, Leaf 4 Tip: −46.026***
  Regression for feeding damage by leaf segment, Leaf 5 Middle: −2.566
  Regression for feeding damage by leaf segment, Leaf 5 Tip: −34.783***
Spodoptera frugiperda; in vivo
  Reduction of feeding damage from Baseline, Leaf 4 Middle: 7.2 percentage points
  Reduction of feeding damage from Baseline, Leaf 5 Middle: 3.5 percentage points
Spodoptera frugiperda; leaf harvested 14 d
  Feeding damage, Leaf 4 Middle: 86% and 86.4%
  Feeding damage, Leaf 4 Tip: 49%
  Feeding damage, Leaf 5 Middle: 88%
Spodoptera frugiperda
  Regression for FAW mortality rate (coefficient): 20.341***
  Regression for overall feeding damage (coefficient): −31.836***
[1]
  Distribution of 14C-labeled Chlorantraniliprole in plant parts: higher concentration of Chlorantraniliprole in earlier parts (stem, Leaf 1)
UC-1 cultures
  Operational toxicity to UC-1 cultures (live protists remain viable and actively moving): satisfied all criteria

## Spinosad
Spodoptera frugiperda; Table 7 (Spinosad data set)
  Regression for feeding damage by leaf segment, Leaf 3 Middle: −45.225***
  Regression for feeding damage by leaf segment, Leaf 3 Tip: −59.140***
  Regression for feeding damage by leaf segment, Leaf 4 Middle: −40.880***
  Regression for feeding damage by leaf segment, Leaf 4 Tip: −59.365***
  Regression for feeding damage by leaf segment, Leaf 5 Middle: −10.627***
  Regression for feeding damage by leaf segment, Leaf 5 Tip: −29.736***
Spodoptera frugiperda; in vivo
  Reduction of feeding damage from Baseline, Leaf 4 Tip: 58.5 percentage points
  Reduction of feeding damage from Baseline, Leaf 5 Middle: 9.5 percentage points
Spodoptera frugiperda; leaf harvested 14 d
  Feeding damage, Leaf 4 Tip: ~35.0%
  Feeding damage, Leaf 5 Middle: ~82.2%
Spodoptera frugiperda
  Regression for FAW mortality rate (coefficient): 33.342***
  Regression for overall feeding damage (coefficient): −39.981***
